These results are taken from US7973218B2, “Methods and compositions for controlling weeds” (Pioneer Hi-Bred International, Inc., priority 2005, dated 2011).

For data set [1], the system named is Parent elite stiff stalk inbred corn. The experiment in a line: Preemergence herbicide application to potted corn (fresh weight, visual injury). As to conditions: for Crop visual injury at 200 g/ha: Zea mays, pre-emergence, 672 h, read-out: % Visual Injury; for Fresh Weight: fresh shoots weighed 4 weeks after treatment, untreated 36.7 g. The format is in vivo.
For data set [2], the system named is Heterozygous GAT-HRA corn. The data set is described as above. The format is in vivo. The settings on record: for Crop visual injury at 200 g/ha: Zea mays, pre-emergence, 672 h, read-out: % Visual Injury; for Fresh Weight: fresh shoots weighed 4 weeks after treatment, untreated 47.0 g.
For data set [3], the system named is Parent elite stiff stalk inbred corn. Briefly: Postemergence herbicide application to potted corn (fresh weight, visual injury). The data set is classed as in vivo. The settings on record: for Fresh Weight: weighed 2 weeks after treatment, untreated 76.4 g; for % visual injury to corn at 200 g/ha / % Visual Injury: 0% no injury, 100% plant death.
The subject of data set [4] is Heterozygous GAT-HRA corn. The description is as above. As to conditions: for Visual crop injury (%) at 200 g/ha / % Visual Injury: 0% no injury, 100% plant death; for Fresh Weight: weighed 2 weeks after treatment, untreated 98.8 g. The data set is classed as in vivo.
Another data set deals with GAT-HRA maize. The experiment in a line: Postemergence herbicide spray of maize at V2 stage, injury evaluated 10-14 days after. The format is in vivo. The settings on record: 200 g ai/ha (metsulfuron-methyl 35 g ai/ha). Here is the method: GAT-HRA maize plants were evaluated for tolerance to glyphosate and other herbicides. One protocol used in this evaluation was as follows. At the V2 stage (Ritchie and Hanway (1982), “How a corn plant develops” Spec. Rep. 48. (Coop. Ext. Ser., Iowa State Univ., Ames, Iowa)), plant heights were measured and herbicides were applied by spray application. Ten to fourteen days after the spray application, the transgenic plants were evaluated for injury symptoms and measured for plant height again in order to determine plant growth rates.
Plants were then evaluated at various times after treatment, such as 10 or 14 days after treatment. […] Leaf samples were taken from GAT-HRA plants and used in quantitative PCR analysis and other analyses to determine the number and arrangement of copies of the GAT and HRA polynucleotides that had been integrated into the plant genome.
Other protocols for evaluation included treatment with imidazolinone herbicides, such as the commercial herbicide Lightning® (a combination of imazapyr and imazethapyr), which was applied to GAT-HRA maize at the V2 leaf stage at four times the field label rate (250 g ai/ha). […] Another protocol for evaluation included treatment with imidazolinone herbicides as well as sulfonylurea and glyphosate herbicides. In these tests, GAT-HRA maize was treated with various combinations of Lightning® (imazapyr and imazethapyr), Basis® (rimsulfuron and thifensulfuron-methyl) and WeatherMAX® (glyphosate potassium salt). These herbicides were applied at the V2 stage as follows: Lightning® at twice the field label rate (1.8 oz ai/ac (133 ml ai/ha)), Basis® at twice the field label rate (0.5 oz ai/ac (36.9 ml ai/ha)) and WeatherMax® at four times the field label rate (43 oz ai/ac). Fourteen days after the treatment application, the plants were evaluated. […] “Field label rate” refers to the application rate specified on the product label. Where the application rate for a particular situation is a range of rates, as used herein, the term “field label rate” indicates the upper end of that range. […]

Another data set concerns control maize. The data set is described as above. As to conditions: 200 g ai/ha (metsulfuron-methyl 35 g ai/ha). The format is in vivo.
Data set [5] deals with Soybeans comprising the lead GAT7 event and also having HRA. Briefly: Greenhouse test confirming the field trial (Example 6B). The format is in vivo, soybean. The settings on record: GAT/HRA Soybeans. The source says: Example 6B provides greenhouse data that confirms the field trial data provided above in Example 6A. Soybeans comprising the lead GAT7 event and also having HRA were used in the studies.

The test system of data set [6] is Hairy Fleabane (Conyza bonariensis), glyphosate sensitive biotype. The experiment in a line: Control of hairy fleabane by glyphosate, metsulfuron-methyl and two additives. The settings on record: 10-15 leaf stage, 200 L ha^−1. The data set is classed as in vivo. Here is the method: This example included the same treatments as used in Example 11, except the treatments were carried out on a glyphosate sensitive biotype of Kleinskraalhans (Conyza bonariensis).

The test system of data set [7] is non-glyphosate resistant ryegrass. Briefly: Control of ryegrass by glyphosate, metsulfuron-methyl and two additives. The data set is classed as in vivo. As to conditions: metsulfuron-methyl (BRUSH-OFF) alone. The procedure: The example was conducted on non-glyphosate resistant ryegrass. As provided in Table 23, all treatments that included glyphosate [180 g a.i. L ha^−1 (0.5 L glyphosate (SCAT®))] plus metsulfuron-methyl (BRUSH-OFFS®) (5 and 10 g ha^−1) gave 100% control of the ryegrass.

[8] abbreviates: preemergence, 200 g/ha, 0% no injury, 100% plant death, mean of four replications.
Setting [9] is: preemergence, 200 g/ha, mean of four replications.
[10] abbreviates: 200 g/ha, mean of four replications.
Setting [11] is: Zea mays, post-emergence, 200 g/ha, mean of four replications.
Setting [12] is: Zea mays, post-emergence, 1870 g/ha.

Read-outs that look alike come from different tables or passages of the source.

With `CCOc1nc(F)cc2nc(S(=O)(=O)Nc3c(Cl)cccc3C(=O)OC)nn12` [Chloransulam-methyl, methyl 3-chloro-2-[[(5-ethoxy-7-fluoro-[1,2,4]triazolo [1,5-c]pyrimidin-2-yl)sulfonyl]amino]benzoate], the Crop visual injury at 200 g/ha in data set [1] (setting [8]) and in data set [2] (setting [8]) was 3% throughout. Also, the “Fresh Weight” value came to 5.5 g in data set [1] (setting [9]) and 6.8 g in data set [3] (setting [10]). Also, in [3] (setting [11]), the % visual injury to corn at 200 g/ha turned out to be 96%. Further, the Visual crop injury (%) at 200 g/ha in data set [4] (setting [11]) was 3%.
`CCOC(=O)c1ccccc1S(=O)(=O)NC(=O)Nc1nc(Cl)cc(OC)n1` [Chlorimuron-ethyl, ethyl 2-[[[[(4-chloro-6-methoxy-2-pyrimidinyl)amino]carbonyl]amino]sulfonyl]-benzoate]: the “damage from the treatment” value is recorded as “no significant damage” in the data set with GAT-HRA maize and “severely damaged or killed” in the data set with control maize.
On to `COc1nn(C(=O)NS(=O)(=O)c2ccccc2OC(F)(F)F)c(=O)n1C` [Flucarbazone Na^+, 4,5-dihydro-3-methoxy-4-methyl-5-oxo-N-[[2-(trifluoromethoxy)phenyl]sulfonyl]-1H-1,2,4-triazole-1-carboxamide], for which the Crop visual injury at 200 g/ha in data set [1] (setting [8]) was determined as 100%; in data set [2] (setting [8]), 40%. Further, the “Fresh Weight” value in [1] (setting [9]) amounted to 0.0 g; in [3] (setting [10]), 3.1 g; in data set [4] (setting [10]), 86.0 g. Further, the % visual injury to corn at 200 g/ha in data set [3] (setting [11]) stood at 100%. In addition, in data set [4] (setting [11]), the Visual crop injury (%) at 200 g/ha was determined as 14%.
In the case of `COC(=O)c1ccc(C(F)(F)F)nc1S(=O)(=O)NC(=O)Nc1nc(OC)cc(OC)n1` [Flupyrsulfuron-methyl Na^+, methyl 2-[[[[(4,6-dimethoxy-2-pyrimidinyl)amino]carbonyl]amino]sulfonyl]-6-(trifluoromethyl)-3-pyridinecarboxylate], the Crop visual injury at 200 g/ha came to 87% in data set [1] (setting [8]) and 90% in data set [2] (setting [8]). The “Fresh Weight” value in data set [3] (setting [10]) is on record as 5.2 g. In data set [3] (setting [11]), the % visual injury to corn at 200 g/ha came out at 95%. In [4] (setting [11]), this molecule returned a Visual crop injury (%) at 200 g/ha of 4%.
As to `CP(=O)(O)CCC(N)C(=O)O` (centres unmarked) [Glufosinate ammonium], the “Fresh Weight” value was 2.4 g in [3] (1870 g/ha) and 112.3 g in data set [4] (1870 g/ha). For the same molecule, the % visual injury to corn at 1870 g/ha in data set [3] (setting [12]) is 99%. Besides, the Visual crop injury (%) at 1870 g/ha in [4] (setting [12]) stood at 1%.
Turning to `CC(C)C1(C)N=C(c2ncccc2C(=O)O)NC1=O` (centres unmarked) [Imazapyr], the “damage from the treatment” value with GAT-HRA maize is on record as “no significant damage”; in the data set with control maize, “severely damaged or killed”.
`CCc1cnc(C2=NC(C)(C(C)C)C(=O)N2)c(C(=O)O)c1` (centres unmarked) [Imazethapyr]: the “% Growth Reduction” value is given as −1% in data set [5] (Rimsulfuron 0 + Imazethapyr 560 g ai/ha, Treatment # 4) and 10% in data set [5] (Rimsulfuron 0 + Imazethapyr 1024 g ai/ha, Treatment # 5).
Take `COC(=O)c1ccc(I)cc1S(=O)(=O)NC(=O)Nc1nc(C)nc(OC)n1` [Iodosulfuron-methyl Na^+, methyl 4-iodo-2-[[[[(4-methoxy-6-methyl-1,3,5-triazin-2-yl)amino]carbonyl]amino]sulfonyl]benzoate]: the values for the Crop visual injury at 200 g/ha in data set [1] (setting [8]) and in data set [2] (setting [8]) were 92% and 5%, respectively. In addition, the “Fresh Weight” value stood at 3.5 g in [3] (setting [10]) and 95.0 g in data set [4] (setting [10]). Besides, the % visual injury to corn at 200 g/ha in [3] (setting [11]) turned out to be 100%. In addition, in data set [4] (setting [11]), the Visual crop injury (%) at 200 g/ha amounted to 1%.
For the molecule `COC(=O)c1ccccc1S(=O)(=O)NC(=O)Nc1nc(C)nc(OC)n1` [Metsulfuron-methyl (BRUSH-OFF ®)], the “Control (%)” value in data set [6] (metsulfuron-methyl (BRUSH-OFF) 5 g/ha) and in data set [6] (metsulfuron-methyl (BRUSH-OFF) 10 g/ha) was 100% throughout.
In the case of `COC(=O)c1ccccc1S(=O)(=O)NC(=O)Nc1nc(C)nc(OC)n1` [Metsulfuron-methyl, methyl 2-[[[[(4-methoxy-6-methyl-1,3,5-triazin-2-yl)amino]carbonyl]amino]sulfonyl]benzoate], the “damage from the treatment” value with GAT-HRA maize is given as “no significant damage”; in the data set on control maize, “severely damaged or killed”. Also, the “effect on its own” value in data set [7] is listed as “did nothing accept stunt the ryegrass plants slightly”.
In the case of `CCCOc1nn(C(=O)NS(=O)(=O)c2ccccc2C(=O)OC)c(=O)n1C` [Propoxycarbazone Na^+, methyl 2-[[[(4,5-dihydro-4-methyl-5-oxo-3-propoxy-1H-1,2,4-triazol-1-yl)carbonyl]amino]sulfonyl]benzoate], the Crop visual injury at 200 g/ha in [1] and in [2] was 100% each time. Further, the “Fresh Weight” value is listed as 0.6 g in data set [1] (setting [9]) and 1.9 g in data set [3] (setting [10]). Also, the % visual injury to corn at 200 g/ha in [3] (setting [11]) came to 100%. Also, in data set [4] (setting [11]), the Visual crop injury (%) at 200 g/ha was 9%.
`COc1cc(OC)nc(Sc2cccc(Cl)c2C(=O)[O-])n1.[Na+]` [Pyrithiobac Na^+]: the “Fresh Weight” value in data set [1] (setting [9]) is reported as 0.0 g; in data set [3] (setting [10]) it was 2.8 g. Besides, the results for the “% Visual Injury” value in [3] (setting [10]) and in [4] (setting [10]) were 100% and 9%, respectively.
Regarding `COC(=O)c1ccccc1S(=O)(=O)NC(=O)Nc1nc(C)cc(C)n1` [Sulfometuron-methyl, methyl 2-[[[[(4,6-dimethyl-2-pyrimidinyl)amino]carbonyl]amino]sulfonyl]-benzoate], the “Fresh Weight” value in data set [3] (setting [10]) is 2.0 g.
On to `COc1cc(OC)nc(NC(=O)NS(=O)(=O)c2ncccc2OCC(F)(F)F)n1` [Trifloxysulfuron Na^+, N-[[(4,6-dimethoxy-2-pyrimidinyl)amino]-carbonyl]-3-(2,2,2-trifluoroethoxy)-2-pyridinesulfonamide], for which the Crop visual injury at 200 g/ha in [1] (setting [8]) worked out at 100%; in data set [2] (setting [8]) it was 0%. Moreover, the “Fresh Weight” value is listed as 0.0 g in data set [1] (setting [9]), 50.8 g in data set [2] (setting [9]), 1.0 g in data set [3] (setting [10]) and 86.6 g in data set [4] (setting [10]). In data set [3] (setting [11]), the % visual injury to corn at 200 g/ha stood at 100%. The same molecule yielded a Visual crop injury (%) at 200 g/ha in data set [4] (setting [11]) of 29%.
In the case of `COC(=O)c1cccc(C)c1S(=O)(=O)NC(=O)Nc1nc(OCC(F)(F)F)nc(N(C)C)n1` [Triflusulfuron-methyl], the “Fresh Weight” value in [1] (setting [9]) turned out to be 26.3 g; in data set [2] (setting [9]) it was 53.5 g; in data set [3] (setting [10]), 2.1 g; in [4] (setting [10]) it was 110.9 g. Further, the results for the “% Visual Injury” value in data set [3] (setting [10]) and in data set [4] (setting [10]) were 100% and 8%, respectively.
Regarding `O=C(O)CNCP(=O)(O)O` [glyphosate (ROUNDUP ®)], the “Control (%)” value in data set [6] (glyphosate (ROUNDUP, 360 g a.i. L^−1) 0.5 L/ha) is listed as 12%.
As for Imazamethabenz-methyl, the “Fresh Weight” value in data set [1] (setting [9]) is 36.2 g; in data set [2] (setting [9]), 48.5 g; in [3] (setting [10]), 66.9 g; in data set [4] (setting [10]) it was 95.0 g. Moreover, the “% Visual Injury” value in data set [3] (setting [10]) is listed as 11%; in data set [4] (setting [10]) it was 16%.
